Reference: ChEMBL document CHEMBL1125293 (J Med Chem, 1992)

The molecules below were run against T1, Substance-P receptor (Rattus norvegicus, UniProt P14600) (assay: Inhibition of [125]I-Bolton Hunter Substance P([125]I-BHSP) binding to Tachykinin receptor 1 from rat forebrain membranes.).
Type: cell membranes, Membrane

T1 sequence (P14600 whole entry): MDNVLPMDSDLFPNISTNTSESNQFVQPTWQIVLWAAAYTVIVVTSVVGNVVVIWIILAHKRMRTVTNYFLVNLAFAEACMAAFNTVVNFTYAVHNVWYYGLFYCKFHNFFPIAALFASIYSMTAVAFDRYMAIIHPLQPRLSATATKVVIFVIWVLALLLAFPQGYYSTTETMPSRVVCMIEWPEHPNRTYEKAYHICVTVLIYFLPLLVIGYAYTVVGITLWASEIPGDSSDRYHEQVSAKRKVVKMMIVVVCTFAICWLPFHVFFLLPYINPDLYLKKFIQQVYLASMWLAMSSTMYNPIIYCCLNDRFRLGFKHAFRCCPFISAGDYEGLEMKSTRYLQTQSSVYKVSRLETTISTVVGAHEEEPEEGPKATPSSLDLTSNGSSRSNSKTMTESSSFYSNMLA

SMILES	IC50
C[C@]12Cc3cn4c(nc3CC1CCC1C2CC[C@]2(C)C(=O)CCC12)nc1ccccc14 (stereo not given in full)	> 10 µM
CC#C[C@]1(O)CCC2C3CCC4Cc5nc6nc7ccccc7n6cc5C[C@]4(C)C3CC[C@@]21C (stereo not given in full)	0.18 µM
CC(C)CCCC(C)[C@@H]1CCC2C3CCC4Cc5nc6nc7ccccc7n6cc5C[C@]4(C)C3CC[C@@]21C (stereo not given in full)	> 10 µM
C[C@]12CCC3C(CC[C@@H]4Cc5nc6nc7ccccc7n6cc5C[C@]34C)C1CC[C@@H]2O (stereo not given in full)	> 10 µM
c1ccc2c(c1)nc1nc3c(cn12)CCCC3	> 10 µM
C[C@]12Cc3cn4c(nc3CC1CCC1C2CC[C@@]2(C)C1CC[C@@]2(O)c1ccccc1)nc1ccccc14 (stereo not given in full)	> 10 µM
COC(=O)[C@H]1CCC2C3CCC4Cc5nc6nc7ccccc7n6cc5C[C@]4(C)C3CC[C@@]21C (stereo not given in full)	> 10 µM
C#CC[C@]1(O)CCC2C3CCC4Cc5nc6nc7ccccc7n6cc5C[C@]4(C)C3CC[C@@]21C (stereo not given in full)	0.32 µM

The molecules below were run against T1, Substance-P receptor.
Type: cell membranes, Membrane

SMILES	IC50
C#C[C@]1(O)CCC2C3CC[C@H]4Cc5nc6cc7ccccc7n6cc5C[C@]4(C)C3CC[C@@]21C (stereo not given in full)	> 10 µM
C#C[C@]1(O)CCC2C3CC[C@H]4Cc5nc6[nH]c7ccccc7c6cc5C[C@]4(C)C3CC[C@@]21C (stereo not given in full)	> 10 µM
C#C[C@]1(O)CCC2C3CC[C@H]4Cc5nc6nc7cc8ccccc8cc7n6cc5C[C@]4(C)C3CC[C@@]21C (stereo not given in full)	0.32 µM
C[C@@]12CCCC1C1CCC3Cc4nc5nc6ccccc6n5cc4C[C@]3(C)C1CC2 (stereo not given in full)	> 10 µM
C#C[C@]1(OC)CCC2C3CCC4Cc5nc6nc7ccccc7n6cc5C[C@]4(C)C3CC[C@@]21C (stereo not given in full)	> 10 µM
CC(CCC(=O)O)[C@H]1CCC2C3C(C[C@H](O)[C@@]21C)[C@@]1(C)Cc2cn4c(nc2CC1C[C@H]3O)nc1ccccc14 (stereo not given in full)	> 10 µM
Cc1cc(C)n2c(n1)nc1ccccc12	> 10 µM
C=CC1=CCCC2Cc3nc4nc5ccccc5n4cc3C[C@]12C (stereo not given in full)	> 10 µM
C[C@]12Cc3cn4c(nc3CC1CCC1C2CC[C@@]2(C)C1CC[C@]2(C)O)nc1ccccc14 (stereo not given in full)	0.2 µM
C[C@]12Cc3cn4c(nc3CC1CCC1C2CC[C@@]2(C)C1CC[C@@H]2O)nc1ccccc14 (stereo not given in full)	0.22 µM
COC(=O)CCC(C)[C@H]1CCC2C3C(C[C@H](O)[C@@]21C)[C@@]1(C)Cc2cn4c(nc2CC1C[C@H]3O)nc1ccccc14 (stereo not given in full)	> 2.5 µM
C=C[C@]1(O)CCC2C3CCC4Cc5nc6nc7ccccc7n6cc5C[C@]4(C)C3CC[C@@]21C (stereo not given in full)	0.086 µM
